# Data reported in PubChem BioAssay AID1963829 (Molecular Pharmacology Branch, DTP, NCI, 2024).
# Test system: 935938-334-R-J1-PDC complex spheroid viability
# Assay: Anticancer human tumor 935938-334-R-J1-PDC patient-derived small intestine adenocarcinoma cell line growth inhibition [POLQ]
# Settings: for IC50: curve of first compound; for viability, T/C: stronger effect = lower value
# Procedure, shortened: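 PDC + HUVEC + MSC complex spheroids; POLQ inhibitors ± partner drugs; top conc. at/near clinical Cmax, else 10 microM (SN-38 1 microM), half-log dilutions; 37 degrees C, 5% CO2.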
# [1] = second compound 0.0316 µM, first compound 0.0316 µM
# [2] = second compound 0.0316 µM, first compound 0.1 µM
# [3] = second compound 0.0316 µM, first compound 0.316 µM
# [4] = second compound 0.0316 µM, first compound 1 µM
# [5] = second compound 0.0316 µM, first compound 3.16 µM
# [6] = second compound 0.0316 µM, first compound 10 µM
# [7] = second compound 0.1 µM, first compound 0.0316 µM
# [8] = second compound 0.1 µM, first compound 0.1 µM
# [9] = second compound 0.1 µM, first compound 0.316 µM
# [10] = second compound 0.1 µM, first compound 1 µM
# [11] = second compound 0.1 µM, first compound 3.16 µM
# [12] = second compound 0.1 µM, first compound 10 µM
# [13] = second compound 0.316 µM, first compound 0.0316 µM
# [14] = second compound 0.316 µM, first compound 0.1 µM
# [15] = second compound 0.316 µM, first compound 0.316 µM
# [16] = second compound 0.316 µM, first compound 1 µM
# [17] = second compound 0.316 µM, first compound 3.16 µM
# [18] = second compound 0.316 µM, first compound 10 µM
# [19] = second compound 1 µM, first compound 0.0316 µM
# [20] = second compound 1 µM, first compound 0.1 µM
# [21] = second compound 1 µM, first compound 0.316 µM
# [22] = second compound 1 µM, first compound 1 µM
# [23] = second compound 1 µM, first compound 3.16 µM
# [24] = second compound 1 µM, first compound 10 µM
# [25] = second compound 3.16 µM, first compound 0.0316 µM
# [26] = second compound 3.16 µM, first compound 0.1 µM
# [27] = second compound 3.16 µM, first compound 0.316 µM
# [28] = second compound 3.16 µM, first compound 1 µM
# [29] = second compound 3.16 µM, first compound 3.16 µM
# [30] = second compound 3.16 µM, first compound 10 µM
# [31] = second compound 10 µM, first compound 0.0316 µM
# [32] = second compound 10 µM, first compound 0.1 µM
# [33] = second compound 10 µM, first compound 0.316 µM
# [34] = second compound 10 µM, first compound 1 µM
# [35] = second compound 10 µM, first compound 3.16 µM
# [36] = second compound 10 µM, first compound 10 µM
# 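Further: spheroids exposed to drugs for seven days before viability read.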
# 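Wherever viability, T/C is given: 100% = DMSO vehicle control wells.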
smiles,measurement,setting,value
CC(C)n1c(=O)n(C)c2cnc3cc(F)c(-c4ccc(OCCCN5CCCCC5)nc4)cc3c21 + Nc1ccc(C#CCN(C(=O)Cc2ncc(C(F)(F)F)cc2C(F)(F)F)c2ccc(F)cc2)nn1,IC50,second compound 0.0316 µM,> 10 µM
same,IC50,second compound 0.1 µM,> 10 µM
same,IC50,second compound 0.316 µM,> 10 µM
same,IC50,second compound 1 µM,> 10 µM
same,IC50,second compound 3.16 µM,> 10 µM
same,IC50,second compound 10 µM,> 10 µM
same,"viability, T/C",[1],94.3%
same,"viability, T/C",[2],84.3%
same,"viability, T/C",[3],132%
same,"viability, T/C",[4],82.9%
same,"viability, T/C",[5],90.5%
same,"viability, T/C",[6],79.4%
same,"viability, T/C",[7],100%
same,"viability, T/C",[8],102%
same,"viability, T/C",[9],111%
same,"viability, T/C",[10],84.9%
same,"viability, T/C",[11],117%
same,"viability, T/C",[12],90.6%
same,"viability, T/C",[13],101%
same,"viability, T/C",[14],99.4%
same,"viability, T/C",[15],84.9%
same,"viability, T/C",[16],101%
same,"viability, T/C",[17],113%
same,"viability, T/C",[18],98.4%
same,"viability, T/C",[19],120%
same,"viability, T/C",[20],77.8%
same,"viability, T/C",[21],102%
same,"viability, T/C",[22],113%
same,"viability, T/C",[23],128%
same,"viability, T/C",[24],85.7%
same,"viability, T/C",[25],93.2%
same,"viability, T/C",[26],97.7%
same,"viability, T/C",[27],98.2%
same,"viability, T/C",[28],92.4%
same,"viability, T/C",[29],100%
same,"viability, T/C",[30],94.4%
same,"viability, T/C",[31],107%
same,"viability, T/C",[32],88.8%
same,"viability, T/C",[33],82.9%
same,"viability, T/C",[34],107%
same,"viability, T/C",[35],110%
same,"viability, T/C",[36],109%
O=C(Nc1ccc(O)c(NS(=O)(=O)c2ccc(F)cc2)c1)c1ccc(-c2ccccc2)cc1 + COC1C(OC(N)=O)C(O)C(Oc2ccc3c(O)c(NC(=O)c4ccc(O)c(CC=C(C)C)c4)c(=O)oc3c2C)OC1(C)C,IC50,second compound 0.0316 µM,> 10 µM
same,IC50,second compound 0.1 µM,> 10 µM
same,IC50,second compound 0.316 µM,> 10 µM
same,IC50,second compound 1 µM,> 10 µM
same,IC50,second compound 3.16 µM,> 10 µM
same,IC50,second compound 10 µM,> 10 µM
same,"viability, T/C",[1],77.9%
same,"viability, T/C",[2],134%
same,"viability, T/C",[3],107%
same,"viability, T/C",[4],102%
same,"viability, T/C",[5],89.1%
same,"viability, T/C",[6],66.7%
same,"viability, T/C",[7],115%
same,"viability, T/C",[8],97.3%
same,"viability, T/C",[9],86.5%
same,"viability, T/C",[10],97%
same,"viability, T/C",[11],90.8%
same,"viability, T/C",[12],72.4%
same,"viability, T/C",[13],95.3%
same,"viability, T/C",[14],97.9%
same,"viability, T/C",[15],102%
same,"viability, T/C",[16],75.9%
same,"viability, T/C",[17],93.3%
same,"viability, T/C",[18],73.6%
same,"viability, T/C",[19],106%
same,"viability, T/C",[20],109%
same,"viability, T/C",[21],96.2%
same,"viability, T/C",[22],93%
same,"viability, T/C",[23],116%
same,"viability, T/C",[24],77%
same,"viability, T/C",[25],105%
same,"viability, T/C",[26],93.3%
same,"viability, T/C",[27],85.2%
same,"viability, T/C",[28],109%
same,"viability, T/C",[29],87.6%
same,"viability, T/C",[30],75.2%
same,"viability, T/C",[31],145%
same,"viability, T/C",[32],99.7%
same,"viability, T/C",[33],128%
same,"viability, T/C",[34],84.4%
same,"viability, T/C",[35],97.2%
same,"viability, T/C",[36],67.6%
CC(C)n1c(=O)n(C)c2cnc3cc(F)c(-c4ccc(OCCCN5CCCCC5)nc4)cc3c21 + COC1C(OC(N)=O)C(O)C(Oc2ccc3c(O)c(NC(=O)c4ccc(O)c(CC=C(C)C)c4)c(=O)oc3c2C)OC1(C)C,IC50,second compound 0.0316 µM,> 10 µM
same,IC50,second compound 0.1 µM,> 10 µM
same,IC50,second compound 0.316 µM,> 10 µM
same,IC50,second compound 1 µM,> 10 µM
same,IC50,second compound 3.16 µM,> 10 µM
same,IC50,second compound 10 µM,> 10 µM
same,"viability, T/C",[1],124%
same,"viability, T/C",[2],124%
same,"viability, T/C",[3],108%
same,"viability, T/C",[4],95.4%
same,"viability, T/C",[5],138%
same,"viability, T/C",[6],133%
same,"viability, T/C",[7],123%
same,"viability, T/C",[8],109%
same,"viability, T/C",[9],79%
same,"viability, T/C",[10],135%
same,"viability, T/C",[11],139%
same,"viability, T/C",[12],92.8%
same,"viability, T/C",[13],98%
same,"viability, T/C",[14],105%
same,"viability, T/C",[15],118%
same,"viability, T/C",[16],119%
same,"viability, T/C",[17],108%
same,"viability, T/C",[18],85.2%
same,"viability, T/C",[19],81.3%
same,"viability, T/C",[20],117%
same,"viability, T/C",[21],99.3%
same,"viability, T/C",[22],113%
same,"viability, T/C",[23],104%
same,"viability, T/C",[24],120%
same,"viability, T/C",[25],95%
same,"viability, T/C",[26],115%
same,"viability, T/C",[27],89.6%
same,"viability, T/C",[28],117%
same,"viability, T/C",[29],106%
same,"viability, T/C",[30],90.3%
same,"viability, T/C",[31],94.4%
same,"viability, T/C",[32],135%
same,"viability, T/C",[33],122%
same,"viability, T/C",[34],160%
same,"viability, T/C",[35],133%
same,"viability, T/C",[36],101%
